Tests used:
[1] = system: T cells isolated from mouse spleens; test: T cell proliferation (anti-CD3/anti-CD28 dynabeads, CCK-8 assay); type: cell-based; conditions: 72 hours, read-out: Scoring: IC50, cell proliferation
Protocol: weeks old. Cells were harvested under sterile conditions by forcing each spleen though a cell filter (pore size 100 μm diameter). A homogenous cell suspension was obtained by washing the cells in fresh medium and passing cells through a smaller cell filter (pore size 70 μm).
Untouched T cells were isolated using the Pan T cell isolation kit (Miltenyi Biotech). Briefly, cells were counted and incubated with the required volume of antibody cocktail for 5 minutes at 4° C. before addition of microbeads and incubation for 10 minutes at 4° C. Labeled cells were retained in a magnetic column while unlabeled cells (T cells) passed through the column and were retained for use in the assay.
Cell viability was assessed by Trypan Blue exclusion and found to be >99% prior to transfer to plates. Isolated T cells were seeded out in 96 well plates at a density of 50,000 cells per well and allowed to incubate for 60 minutes in a humidified cell culture (37° C., 5% CO2) incubator prior to compound treatment. The media used for this assay (TexMACS, Miltenyi Biotech) was previously optimized for proliferation of T cells in serum free conditions.
Representative compounds of the invention (i.e., test compounds) were prepared as 30 mM stocks in 100% DMSO. Test compounds were initially diluted in media to yield 3 mM stocks before an additional 1:10 dilution in media was performed to yield working stocks of 300 μM (1% DMSO). Subsequent dilutions were performed in media (supplemented with 1% DMSO). When added to the assay plates (1:10 dilution), these yielded final concentrations in the assay plates of in 0.1% DMSO. The reference compound, Cyclosporin A, was prepared in an identical manner as above.
Unstimulated and Stimulated Control wells received an identical volume of TexMACS media/1% DMSO at this time, resulting in a final concentration of 0.1% DMSO across the plate. […] After removal of 60% of the supernatant for subsequent ELISA, cell proliferation was assessed using the CCK-8 assay. […]

[2] = system: rat dorsal root ganglion (DRG) cells; test: Rat dorsal root ganglion (DRG) excitability response to electrical field stimulation; type: cell-based; conditions: adult rat DRG cells, Ca5 Ca2+ indicator, six concentrations, highest typically 30 μM, read-out: Scoring: EC50, modulation of rat DRG excitability
Protocol: Rat Dorsal Root Ganglion Excitability Response of Representative Compounds Dorsal root ganglions (DRGs) were dissected from adult rats. The tissue was processed, and cells were seeded into cell culture plates (48 center wells of one quadrant in 384-well plates) and cultured for 2 days prior to Electrical field stimulation (EFS). To visualize the neuronal excitability response, intracellular Ca^+2 transients were monitored using the Ca^+2 indicator, Ca5. Ca5 was added to the cultures 1 h prior to EFS. Representative compounds of the invention (i.e., test compounds) and reference compound, tetracaine, were added in concentration-response format encompassing six concentrations, performed in duplicate. The highest concentration tested was typically 30 μM with 1 in 3 dilutions generating the subsequent concentrations.
Effects on DRG excitability by the test compounds and standard were evaluated using four EFS protocols as disclosed in Table 2.
Experimental results were performed using two seperate sets of plates using separate test compound and standard dilutions, to provide n=2. In the first set of experiments, compounds were added 24 h prior to EFS to increase the possibility to also detect more long-term compound effects. In the second set of experiments the compounds were added directly prior to EFS. Excitability response to EFS was analyzed as the average fluorescence ratio (peak/baseline) change per well. All plates were evaluated using high content imaging equipment post-EFS, imaging the Ca5 background staining to detect any possibile compound-related toxic effects.
Average response by the reference compound, tetracaine, was 4.05 μM.

Mice (male, C57BL/6) = test: Formalin pain assay in mice; type: in vivo, mouse; conditions: 2.5% formalin in left hind paw, time spent flinching/licking/biting
Protocol: Mice (male, C57BL/6) were placed singly in a Perspex chamber for approximately 30 min on three successive days to acclimate and thereby reduce stress-induced behaviors. On the fourth day, the experimental animals received a 25 μl injection of 2.5% formalin beneath the left plantar skin using a 29-gauge syringe. […] The total time spent on flinches/licking/biting of the hind paw was recorded by visual observation for every 5 min period/interval for total observation duration of 60 min in two phases, the early phase (0-5 min) and the late phase (15-40 min). Observers were blinded to the treatment group allocation.
For test compounds, % protection from 0-60 min was used to assess activity. Scoring for the test compounds was as follows: “A” represents a % protection of 81 to 100%, “B” represents a % protection of 61 to 80%, “C” represents a % protection of 31 to 60% and “D” represents a % protection of 0 to 30%.

[3] = Metabolism by human liver microsomes; type: in vitro ADME; conditions: human liver microsomes 1 mg/mL protein, 10 μM, in the presence of NADPH, LC-MS/MS
Protocol: Representative compounds of the invention (i.e., test compounds) and the positive control, 7-ethoxycoumarin, were prepared as stock solutions at 10 mM in DMSO and eventually diluted to 10 μM in the test plate, with an appropriate amount of acetonitrile and tris HCl buffer. Final DMSO and acetonitrile concentrations were […] and 0.5% respectively. NADPH was prepared in tris HCl buffer to a stock of 10 mM. A frozen aliquot of liver microsomes was retrieved from the freezer (−80° C.) and thawed by placing the tube on wet ice. After thawing, the tubes were gently mixed and the required amount, transferred to tris HCl buffer. Test compounds or positive control were pre-incubated, separately, for 10 minutes, with liver microsomes (1 mg/mL protein), at 37° C., in 100 mM Tris HCl at pH 7.5. After preincubation the reaction was started by adding 1 mM NADPH (pre-equilibrated to 30° C.) and the reaction allowed to proceed for 60 minutes. At 60 minutes, a 50 μL aliquot was removed and quenched with 200 uL of acetonitrile containing a mixture of internal standards (Tolbutamide (500 ng/mL) and Telmistartan (500 ng/mL)) and vortexed then centrifuged at 4000 rpm for 10 minutes (Eppendorf 5810R). The supernatant was transferred to a 96 well plate for LC-MS/MS analysis.
An LC-MS/MS method was devised for the test compounds and the control, using a AB Sciex API 4000 system coupled to a NEXAR™ UHPLC (Shimadzu) system. Analytes were separated on a Phenomenex Kinetex C18 column (50×2.1 mm, 5 μm) using a gradient that was appropriate for each compound, at a flow rate of 1 ml/minute, utilizing a mobile phase of 0.1% formic acid in MILLI-Q™ water (A) and 0.1% formic acid in acetonitrile (B). The MS instrument was operated in positive mode (ESI+)/negative (ESI−). The multiple reaction monitoring (MRM) transition for test and control compounds was used for the LC-MS/MS analysis. MRM transitions for control compound 7-ethoxycoumarinm were Quadropole 1: 191.0, Quadropole 3:163.0, dwell time: 75 msec, using curtain gas settings of 5 V, ion-spray voltage of 5500 V, temperature of 50° C. and gas settings for nebulizer and auxiliary set to 30 and 40 psi, respectively. The interface heater was kept on. Entrance potential and collision cell exit potential were varied to tune for a specific compound.
Using a suitable LC-MS/MS method, the percentage of drug remaining at 60 minutes ([…]) was assessed by comparing the average analyte to internal standard area ratio at 60 minutes to the average analyte to internal standard area ratio at 0 time control, as a percentage, from a 5 to 10 μL sample injection.
According to the above assay, the test compounds listed in Table 7 below were active in the Human liver microsome assay at 10 μM and the % of drug remaining after 60 minutes (PDR60), in the presence of NADPH, was assessed by LC-MS/MS. Average PDR60 for the standard compound, 7-ethoxycoumarin was <=65% in the presence of NADPH. Scoring for the test compounds, in the presence of NADPH, was as follows: “A” represents a PDR60 of 81 to 100%, “B” represents a PDR60 of 61 to 80%, “C” represents a PDR60 of 31 to 60% and “D” represents a PDR60 of 0 to 30%.

Scoring: % of drug remaining after 60 minutes (PDR60) [3] | SMILES | IC50 [1] [µM] | EC50 [2] [µM] | Scoring: % protection from 0-60 min (Mice (male, C57BL/6))
 | C[C@@H]1CC[C@@]2(OC1)O[C@H]1C[C@H]3[C@H](CO)[C@@H]([C@@]4(C)Cc5cn[nH]c5C[C@@H]4CO)CC[C@]3(C)[C@H]1[C@@H]2C [Ia-1, ((5R,6S)-5-((2R,3S,3aR,3bS,5′R,6S,7R,7aS,8aS)-7-(hydroxymethyl)-3,3b,5′-trimethyltetradecahydrospiro[indeno[2,1-b]furan-2,2′-pyran]-6-yl)-5-methyl-4,5,6,7-tetrahydro-1H-indazol-6-yl)methanol] | 1.5 to 15 |  | 
A (“A” represents a PDR60 of 81 to 100%) | C[C@@H]1CC[C@@]2(OC1)O[C@H]1C[C@H]3[C@H](CN)[C@@H]([C@@]4(C)Cc5cn[nH]c5C[C@@H]4CO)CC[C@]3(C)[C@H]1[C@@H]2C [Ia-2, ((5R,6S)-5-((2R,3S,3aR,3bS,5′R,6S,7R,7aS,8aS)-7-(aminomethyl)-3,3b,5′-trimethyltetradecahydrospiro[indeno[2,1-b]furan-2,2′-pyran]-6-yl)-5-methyl-4,5,6,7-tetrahydro-1H-indazol-6-yl)methanol] | 1.5 to 15 | 6 to 15 | D (“D” represents a % protection of 0 to 30%)
 | CC[C@H](CC(O)[C@@H](C)[C@H]1CC[C@H]2[C@H](CO)[C@@H]([C@@]3(C)Cc4cn[nH]c4C[C@@H]3CO)CC[C@]12C)C(C)C (stereo partly drawn) [Ia-9, (2S,5R)-5-ethyl-2-((1R,3aS,4S,5S,7aS)-4-(hydroxymethyl)-5-((5R,6S)-6-(hydroxymethyl)-5-methyl-4,5,6,7-tetrahydro-1H-indazol-5-yl)-7a-methyloctahydro-1H-inden-1-yl)-6-methylheptan-3-ol] | 1.5 to 15 |  | 
C (“C” represents a PDR60 of 31 to 60%) | C[C@]1([C@H]2CC[C@]3(C)C(O)CC[C@H]3[C@@H]2CO)Cc2cn[nH]c2C[C@@H]1CO (some centres unmarked) [Ia-10a and Ia-10b] |  |  | C (“C” represents a % protection of 31 to 60%)

— patent US11773108B2, “Indene derivatives useful in treating pain and inflammation” (TARO PHARMACEUTICALS INC., priority 2018, dated 2023)
